# Values of other authors in paper PMC9147442, “Design, Synthesis, and Evaluation of Linker-Optimised PSMA-Targeting Radioligands” (Pharmaceutics, 2022).
# Set-up: method as in PMID 26985056
# Settings: radiotherapy
substance,measurement,value
[^177Lu]Lu-PSMA-617,renal excretion,~ 50 % IA
